Values joined by “and” are separate entries in the source; they are usually repeats but may differ in a detail not shown here. Identical values can stand only once. Inconclusive results and toxic doses are left out.
System: P388 leukemia ip, CD2F1 mice, survival T/C
Experiment: NCI In Vivo Anticancer Drug Screen. Data for tumor model P388 Leukemia (intraperitoneal) in CD2F1 (CDF1) mice
Details: endpoint: median survival time, higher = longer survival
Method in brief: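 Mice carrying the transplanted tumor received test compound or vehicle. Survival was recorded in each group, and the value is the treated-group measurement divided by that of the vehicle-treated control group.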

[1] = dose: 60.0 mg/kg/injection, schedule: Q01DX005 (ip), vehicle: saline with Tween-80
[2] = dose: 120.0 mg/kg/injection, schedule: Q01DX005 (ip), vehicle: saline with Tween-80
[3] = dose: 240.0 mg/kg/injection, schedule: Q01DX005 (ip), vehicle: saline with Tween-80

## Cc1ccc(S(=O)(=O)NCCC(=O)Nc2ccccc2)cc1
dose: 25.0 mg/kg/injection, schedule: Q01DX009 (ip), vehicle: other
  T/C: 102 % of control
dose: 50.0 mg/kg/injection, schedule: Q01DX009 (ip), vehicle: other
  T/C: 103 % of control
dose: 100.0 mg/kg/injection, schedule: Q01DX009 (ip), vehicle: other
  T/C: 103 % of control
dose: 200.0 mg/kg/injection, schedule: Q01DX009 (ip), vehicle: other
  T/C: 102 % of control
dose: 400.0 mg/kg/injection, schedule: Q01DX009 (ip), vehicle: other
  T/C: 96 % of control

## Cc1cc2c(cc1C)C(=O)C(N1CCOCC1)CCO2 (stereo not given)
dose: 100.0 mg/kg/injection, schedule: Q04DX003 (ip), vehicle: saline with Tween-80
  T/C: 99 % of control
dose: 200.0 mg/kg/injection, schedule: Q04DX003 (ip), vehicle: saline with Tween-80
  T/C: 99 % of control
dose: 400.0 mg/kg/injection, schedule: Q04DX003 (ip), vehicle: saline with Tween-80
  T/C: 96 % of control

## CCc1nc2c(cnn2C)c(=O)n1-c1ccc(C)cc1
dose: 50.0 mg/kg/injection, schedule: Q01DX005 (ip), vehicle: Klucel (hydroxypropylcellulose) (HPC)
  T/C: 97 % of control
dose: 100.0 mg/kg/injection, schedule: Q01DX005 (ip), vehicle: Klucel (hydroxypropylcellulose) (HPC)
  T/C: 101 % of control
dose: 200.0 mg/kg/injection, schedule: Q01DX005 (ip), vehicle: Klucel (hydroxypropylcellulose) (HPC)
  T/C: 98 % of control

## COc1ccc(NC(=O)Nc2ccc(C#N)cc2)cc1
[1]
  T/C: 101 % of control
[2]
  T/C: 93 % of control
[3]
  T/C: 93 % of control

## COc1cccc(C2SCC(=O)N2c2nncs2)c1[N+](=O)[O-] (stereo not given)
[1]
  T/C: 110 % of control
[2]
  T/C: 100 % of control
[3]
  T/C: 91 % of control

## CNc1nnnc2c1sc1ccccc12
dose: 100.0 mg/kg/injection, schedule: Q01DX001 (ip), vehicle: saline with Tween-80
  T/C: 105 % of control
dose: 200.0 mg/kg/injection, schedule: Q01DX001 (ip), vehicle: saline with Tween-80
  T/C: 102 % of control
dose: 400.0 mg/kg/injection, schedule: Q01DX001 (ip), vehicle: saline with Tween-80
  T/C: 104 % of control

## CC(=O)NC1C([Se][As](C)C)OC(COC(C)=O)C(OC(C)=O)C1OC(C)=O (stereo not given)
dose: 6.25 mg/kg/injection, schedule: Q01DX009 (ip), vehicle: saline with Tween-80
  T/C: 122 % of control
dose: 12.5 mg/kg/injection, schedule: Q01DX009 (ip), vehicle: saline with Tween-80
  T/C: 116 % of control

## NC(=S)c1sc(-c2ccccc2)cc1N
dose: 60.0 mg/kg/injection, schedule: Q01DX005 (ip), vehicle: Klucel (hydroxypropylcellulose) (HPC)
  T/C: 108 % of control
dose: 120.0 mg/kg/injection, schedule: Q01DX005 (ip), vehicle: Klucel (hydroxypropylcellulose) (HPC)
  T/C: 106 % of control
dose: 240.0 mg/kg/injection, schedule: Q01DX005 (ip), vehicle: Klucel (hydroxypropylcellulose) (HPC)
  T/C: 104 % of control

## COc1cc(Cl)nc(OC)n1
dose: 25.0 mg/kg/injection, schedule: Q01DX009 (ip), vehicle: saline with Tween-80
  T/C: 108 % of control
dose: 50.0 mg/kg/injection, schedule: Q01DX009 (ip), vehicle: saline with Tween-80
  T/C: 89 % of control
dose: 100.0 mg/kg/injection, schedule: Q01DX009 (ip), vehicle: saline with Tween-80
  T/C: 103 % of control
dose: 200.0 mg/kg/injection, schedule: Q01DX009 (ip), vehicle: saline with Tween-80
  T/C: 103 % of control

## CC1(C)C(C)(C)C1(Br)Br
dose: 12.5 mg/kg/injection, schedule: Q01DX009 (ip), vehicle: saline + alcohol
  T/C: 102 % of control
dose: 25.0 mg/kg/injection, schedule: Q01DX009 (ip), vehicle: saline + alcohol
  T/C: 111 % of control
dose: 50.0 mg/kg/injection, schedule: Q01DX009 (ip), vehicle: saline + alcohol
  T/C: 103 % of control
dose: 100.0 mg/kg/injection, schedule: Q01DX009 (ip), vehicle: saline + alcohol
  T/C: 100 % of control and 95 % of control
dose: 200.0 mg/kg/injection, schedule: Q01DX009 (ip), vehicle: saline + alcohol
  T/C: 89 % of control

## COC(=O)C1C(=O)CC2N(C)C1C(C)(C)C2(C)C (stereo not given)
[2]
  T/C: 150 % of control

## COc1cc2cc(-c3cc(OC)c(OC)c(OC)c3)c3c(c2cc1OC)CNC3
dose: 3.12 mg/kg/injection, schedule: Q04DX003 (ip), vehicle: saline with Tween-80
  T/C: 100 % of control
dose: 6.25 mg/kg/injection, schedule: Q04DX003 (ip), vehicle: saline with Tween-80
  T/C: 105 % of control
dose: 12.5 mg/kg/injection, schedule: Q04DX003 (ip), vehicle: saline with Tween-80
  T/C: 100 % of control
dose: 25.0 mg/kg/injection, schedule: Q04DX003 (ip), vehicle: saline with Tween-80
  T/C: 98 % of control
dose: 50.0 mg/kg/injection, schedule: Q04DX003 (ip), vehicle: saline with Tween-80
  T/C: 97 % of control

— PubChem BioAssay AID330 (DTP/NCI, 2004)
